pIC50: −log10 of the molar value.
What was measured:
Type in all cases: functional
Mus musculus = organism: Mus musculus; assay: Compound concentration that causes inhibition of [3H]-acetyl choline release by 50% was determined using reserpine-alpha MPT treated mice striatal slices
[1] = Effect (0.3 uM) on K+-evoked release of [3H]acetylcholine from striatal slices of reserpine-alpha MPT treated mice evoked by two successive exposures (S1and S2) at 55 and 90 min after the start of perfusion.
[2] = Effect (1.0 uM) on K+-evoked release of [3H]acetylcholine from striatal slices of reserpine-alpha MPT treated mice evoked by two successive exposures (S1and S2) at 55 and 90 min after the start of perfusion.
[3] = Effect (3.0 uM) on K+-evoked release of [3H]acetylcholine from striatal slices of reserpine-alpha MPT treated mice evoked by two successive exposures (S1and S2) at 55 and 90 min after the start of perfusion.
[4] = Effect (0.0 uM) on K+-evoked release of [3H]acetylcholine from striatal slices of reserpine-alpha MPT treated mice evoked by two successive exposures (S1and S2) at 55 and 90 min after the start of perfusion.

Structure (SMILES)	pIC50 (Mus musculus)	also measured
NCCc1ccc(O)c(O)c1 [DOPAMINE]	5.00	
NC1CCc2cc(O)c(O)cc2C1 (stereo not drawn)	8.00	
C[S+](C)c1ccc2cc(O)c(O)cc2c1.[Br-]		Ratio [1]: 0.85; Ratio [2]: 0.81; Ratio [3]: 0.86; Ratio [4]: 0.98
CC(N)Cc1ccc(O)c(O)c1 (stereo not drawn)	5.00	
CN(C)CCc1ccc(O)c(O)c1	5.00	

From ChEMBL document CHEMBL1122657, “Dopaminergic agonists: comparative actions of amine and sulfonium analogues of dopamine” (J Med Chem, 1984)
